Assays:
[1] = molecular target: T1, type 1 human 5α-reductase (HRED1) (Homo sapiens, UniProt P18405); experiment: Cell free assay of 5α-reductase, microsomes of rat 1A cells expressing type 1 isoenzyme (HRED1); format: biochemical; parameters: expressed in transfected cells; host or cells: rat 1A cells infected with pMV7 retrovirus; microsomes; conditions: for HRED1 % Inhibition @ 100 μM: Table 5;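 for all read-outs here: microsomes from rat 1A cells expressing human type 1 5α-reductase, conversion of radiolabeled testosterone to dihydrotestosterone quantified by thin layer chromatography with radioanalytic scanning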
T1 sequence (P18405 1-259): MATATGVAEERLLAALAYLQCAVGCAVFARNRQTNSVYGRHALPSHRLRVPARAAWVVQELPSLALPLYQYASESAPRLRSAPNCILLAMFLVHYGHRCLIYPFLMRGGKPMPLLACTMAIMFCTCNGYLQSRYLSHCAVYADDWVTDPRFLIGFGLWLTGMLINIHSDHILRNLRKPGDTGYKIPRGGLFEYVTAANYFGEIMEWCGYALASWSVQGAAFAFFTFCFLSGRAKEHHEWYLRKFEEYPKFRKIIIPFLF

[2] = molecular target: T1, type 1 human 5α-reductase (HRED1); experiment: Whole cell assay of 5α-reductase, type 1 isoenzyme; format: cell-based; parameters: expressed in transfected cells; host or cells: rat 1A cells infected with pMV7 retrovirus; conditions: for HRED1 % Inhibition @ 100 μM / IC50 / inhibition at 100 µM: Table 7;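 for all read-outs here: intact rat 1A cells engineered to express the human type 1 5α-reductase isozyme serve as the enzyme source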
[3] = molecular target: T2, type 2 human 5α-reductase (HRED2) (Homo sapiens, UniProt P31213); experiment: Whole cell assay of 5α-reductase, type 2 isoenzyme; format: cell-based; parameters: expressed in transfected cells; host or cells: rat 1A cells infected with pMV7 retrovirus; conditions: for IC50: Table 7, read-out: HCRED2 IC50;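 for all read-outs here: intact rat 1A cells genetically modified to carry human type 2 5α-reductase served as the enzyme source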
T2 sequence (P31213 1-254): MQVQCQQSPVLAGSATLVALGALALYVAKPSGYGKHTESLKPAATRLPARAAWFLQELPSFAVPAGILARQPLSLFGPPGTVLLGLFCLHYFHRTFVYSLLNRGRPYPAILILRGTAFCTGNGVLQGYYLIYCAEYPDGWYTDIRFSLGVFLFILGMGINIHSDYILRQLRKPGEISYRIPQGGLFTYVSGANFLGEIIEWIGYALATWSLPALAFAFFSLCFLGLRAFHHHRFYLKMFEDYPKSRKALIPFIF

[4] = molecular target: T2, type 2 human 5α-reductase (HRED2); experiment: Cell free assay of 5α-reductase, microsomes of rat 1A cells expressing type 2 isoenzyme (HRED2); format: biochemical; parameters: expressed in transfected cells; host or cells: rat 1A cells infected with pMV7 retrovirus; microsomes; conditions: for HRED2 % Inhibition @ 100 μM: Table 5;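 for all read-outs here: labeled testosterone and its product dihydrotestosterone measured in microsomal reaction extracts via thin layer chromatography plus radioanalytic scanning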
[5] = cell free assay, Table 5 epigallocatechin derivatives, read-out: HRED1 IC50
[6] = whole cell assay, read-out: HCRED1 IC50
[7] = cell free assay, Table 5 epigallocatechin derivatives, read-out: HRED2 IC50
[8] = 100 uM, cell free assay, Table 2
[9] = cell free assay, Table 2 catechols, read-out: HRED1 IC50
[10] = cell free assay, Table 2 catechols, read-out: HRED2 IC50
[11] = 100 uM, cell free assay, Table 1, read-out: HRED1 % Inhibition @ 100 uM
[12] = cell free assay, Table 1 flavanoids, read-out: HRED1 IC50
[13] = 100 uM, cell free assay, Table 1, read-out: HRED2 % Inhibition @ 100 uM
[14] = cell free assay, Table 1 flavanoids, read-out: HRED2 IC50
[15] = cell free assay, Table 6 fatty acids, read-out: HRED1 IC50
[16] = cell free assay, Table 6 fatty acids, read-out: HRED2 IC50
[17] = read-out: HRED1 % Inhibition @ 100 μM
[18] = cell free assay, Table 4 quinones, read-out: HRED2 IC50
[19] = 100 uM, cell free assay, Table 2, read-out: HRED1 % Inhibition @ 100 uM
[20] = 100 uM, cell free assay, Table 2, read-out: HRED2 % Inhibition @ 100 uM

| SMILES | HRED1 % Inhibition @ 100 μM ([2]; whole cell assay) | IC50 [2, 6] | HRED2 % Inhibition @ 100 μM ([3]; Table 7) | IC50 [3] | IC50 [1, 9] | IC50 [4, 10] | inhibition at 100 µM ([2]; whole cell assay) | inhibition at 100 µM ([3]; Table 7) | further results |
| --- | --- | --- | --- | --- | --- | --- | --- | --- | --- |
| COc1cc(C(=O)C=Cc2ccc(N(C)C)cc2)cc(OC)c1OC [HZIV-82] | 79% | 3 µM | 15% | > 100 µM | > 100 µM | > 100 µM | – | – | HRED1 % Inhibition @ 100 uM [1, 8]: 43%; inhibitory activity against type 1 isoenzyme, in words ([1]; cell-free assay): little activity; inhibitory activity in the whole cell assay, type 1 isoenzyme, in words ([2]; whole cell assay): very active; HRED2 % Inhibition @ 100 uM [4, 8]: 0% |
| CCCCC/C=C\C/C=C\CCCCCCCC(=O)O [Linoleic Acid, Linoleic Acid C18:2 CIS 9,12] | – | 40 µM | – | 25 µM | – | – | – | – | IC50 [1, 15]: 9 µM; IC50 [4, 16]: 19 µM |
| CC1=CC(=O)c2ccccc2C1=O [Menadione] | – | – | – | 79 µM | – | – | 82% | 62% | IC50 [1]: 6 µM; inhibitory activity against type 1 isoenzyme, in words ([1]; cell-free assay): potent cell-free inhibitors; inhibition at 100 µM [1, 17]: 77%; IC50 ([2]; HCRED1 IC50, whole cell assay): 51 µM; inhibitory activity in the whole cell assay, type 1 isoenzyme, in words ([2]; whole cell assay): moderate activity; inhibition at 100 µM ([4]; 100 μM, cell free assay, Table 4, read-out: HRED2 % Inhibition @ 100 μM): 81%; IC50 [4, 18]: 5 µM; inhibitory activity against type 2 isoenzyme, in words ([4]; cell-free assay): potent cell-free inhibitors |
| COC(=O)c1cc(O)c(O)c(O)c1 [Methylgallate] | – | > 100 µM | – | > 100 µM | > 100 µM | > 100 µM | 0% | 0% | inhibition at 100 µM [1, 19]: 5%; inhibition at 100 µM [4, 20]: 3% |
| CCCCCCCCOC(=O)c1cc(O)c(O)c(O)c1 [Octyl Gallate] | – | 7 µM | – | 18 µM | 27 µM | 58 µM | 99% | 94% | inhibition at 100 µM [1, 19]: 99%; inhibitory activity in the whole cell assay, type 1 isoenzyme, in words ([2]; whole cell assay): active; inhibition at 100 µM [4, 20]: 90% |
| CCCCCCCC/C=C\CCCCCCCC(=O)O [Oleic Acid, Oleic Acid C18:1 CIS 9] | – | – | – | > 100 µM | – | – | 58% | 45% | IC50 [1]: 10 µM; inhibition at 100 µM [1, 17]: 99%; IC50 ([2]; HCRED1 IC50, whole cell assay): 83 µM; IC50 [4]: 42 µM; inhibition at 100 µM ([4]; read-out: HRED2 % Inhibition @ 100 μM): 86% |
| O=C1c2ccccc2C(=O)c2c(O)c(O)cc(O)c21 [Purpurin] | – | > 100 µM | – | > 100 µM | – | – | 47% | 7% | IC50 ([1]; cell free assay, Table 4 quinones, read-out: HRED1 IC50): 2 µM; IC50 [4, 18]: > 100 µM |
| O=c1c(O)c(-c2ccc(O)c(O)c2)oc2cc(O)cc(O)c12 [Quercitin] | – | > 100 µM | – | > 100 µM | – | – | 15% | 29% | inhibition at 100 µM [1, 11]: 96%; IC50 [1, 12]: 23 µM; IC50 ([1]; cell-free assay, read-out: IC50, type 1 isoenzyme): < 100 µM; inhibition at 100 µM [4, 13]: 14%; IC50 [4, 14]: > 100 µM |
| CCCCCCCCCCCCCCCCCC(=O)O [Stearic Acid, Stearic Acid C18:0] | – | > 100 µM | – | > 100 µM | – | – | 10% | 23% | inhibition at 100 µM ([1]; 100 μM, cell free assay, Table 6, read-out: HRED1 % Inhibition @ 100 μM): 71%; IC50 [1, 15]: 27 µM; inhibition at 100 µM ([4]; 100 μM, cell free assay, Table 6, read-out: HRED2 % Inhibition @ 100 μM): 35%; IC50 [4, 16]: > 100 µM |

Now from value to compound, other results behind:

| HRED1 % Inhibition @ 100 μM ([2]; whole cell assay) | IC50 [2, 6] | HRED2 % Inhibition @ 100 μM ([3]; Table 7) | IC50 [3] | IC50 [1, 9] | IC50 [4, 10] | SMILES | inhibition at 100 µM ([2]; whole cell assay) | inhibition at 100 µM ([3]; Table 7) | further results |
| --- | --- | --- | --- | --- | --- | --- | --- | --- | --- |
| 8% | > 100 µM | 9% | > 100 µM | – | – | CC(=O)OC1Cc2c(O)cc(O)cc2OC1c1cc(O)c(O)c(O)c1 (stereo not shown) [HZIV 145] | – | – | HRED1 % Inhibition @ 100 μM ([1]; 100 μM, cell free assay): 35%; IC50 [1, 5]: > 100 µM; HRED2 % Inhibition @ 100 μM ([4]; 100 μM, cell free assay): 8%; IC50 [4, 7]: > 100 µM |
| 90% | 42 µM | 81% | 74 µM | – | – | CCCCCCCCCCCCCCCCCC(=O)OC1Cc2c(O)cc(O)cc2OC1c1cc(O)c(O)c(O)c1 (stereo not shown) [HZIV 148] | – | – | HRED1 % Inhibition @ 100 μM ([1]; 100 μM, cell free assay): 31%; IC50 [1, 5]: > 100 µM; HRED2 % Inhibition @ 100 μM ([4]; 100 μM, cell free assay): 0%; IC50 [4, 7]: > 100 µM |
| 99% | 7 µM | 98% | 8 µM | – | – | CCCCC=CCCCCCCCC(=O)OC1Cc2c(O)cc(O)cc2OC1c1cc(O)c(O)c(O)c1 (stereo not shown) [HZIV 160] | – | – | HRED1 % Inhibition @ 100 μM ([1]; 100 μM, cell free assay): 99%; IC50 [1, 5]: 29 µM; inhibitory activity against type 1 isoenzyme, in words ([1]; cell-free assay): effective; inhibitory activity in the whole cell assay, type 1 isoenzyme, in words ([2]; whole cell assay): effective; HRED2 % Inhibition @ 100 μM ([4]; 100 μM, cell free assay): 96%; IC50 [4, 7]: 76 µM |
| 10% | > 100 µM | 0% | > 100 µM | – | – | CCCCCC(=O)OC1Cc2c(O)cc(O)cc2OC1c1cc(O)c(O)c(O)c1 (stereo not shown) [HZIV 169] | – | – | HRED1 % Inhibition @ 100 μM ([1]; 100 μM, cell free assay): 90%; IC50 [1, 5]: 47 µM; HRED2 % Inhibition @ 100 μM ([4]; 100 μM, cell free assay): 39%; IC50 [4, 7]: > 100 µM |
| – | 79 µM | – | 20 µM | – | – | O=c1c(O)c(-c2ccc(O)cc2)oc2cc(O)cc(O)c12 [Kaempferol] | 60% | 85% | inhibition at 100 µM [1, 11]: 22%; IC50 [1, 12]: > 100 µM; inhibitory activity in the whole cell assay, type 2 isoenzyme, in words [3]: significant inhibitory activity; inhibition at 100 µM [4, 13]: 62%; IC50 [4, 14]: 12 µM |
| – | > 100 µM | – | > 100 µM | > 100 µM | > 100 µM | CCCOC(=O)c1cc(O)c(O)c(O)c1 [Propylgallate] | 5% | 0% | inhibition at 100 µM [1, 19]: 0%; inhibition at 100 µM [4, 20]: 0% |
| 5% | > 100 µM | – | > 100 µM | 70 µM | > 100 µM | Oc1cccc(O)c1O [Pyrogallol] | 7% | – | inhibition at 100 µM [1, 19]: 60%; HRED2 % Inhibition @ 100 μM ([3]; Table 7, 100 µM): 6%; inhibition at 100 µM [4, 20]: 28% |
